Data from patent US4886810A, “Quinoline derivatives, pharmaceutical composition and method of use” (Dainippon Pharmaceutical Co., Ltd., priority 1986, dated 1989).
Converted amounts (≈) assume the structure as drawn. Like-named read-outs stand apart in the source and are kept apart here.

Experiments:
S. aureus 209P JC-1 = assay: microbe, parasite or virus in culture; assay type: cell-based; details: Staphylococcus aureus, 20 h, read-out: minimum inhibitory concentrations (MIC)
S. aureus No. 50774 = assay: microbe, parasite or virus in culture; assay type: cell-based; details: Staphylococcus aureus, NO.50774, 20 h; read-out: minimum inhibitory concentrations (MIC)
S. aureus No. 80 = assay: microbe, parasite or virus in culture; assay type: cell-based; details: Staphylococcus aureus, NO.80, 20 h; read-out: minimum inhibitory concentrations (MIC)
S. pyogenes A 65 = assay: microbe, parasite or virus in culture; assay type: cell-based; details: Streptococcus pyogenes, A65, 20 h; read-out: minimum inhibitory concentrations (MIC)
S. pyogenes Cook = assay: microbe, parasite or virus in culture; assay type: cell-based; details: Streptococcus pyogenes, 20 h; read-out: minimum inhibitory concentrations (MIC)
E. coli P-51213 = assay: microbe, parasite or virus in culture; assay type: cell-based; details: Escherichia coli, P51213, 20 h; read-out: minimum inhibitory concentrations (MIC)
P. aeruginosa 12 = assay: microbe, parasite or virus in culture; assay type: cell-based; details: Pseudomonas aeruginosa, 12, 20 h; read-out: minimum inhibitory concentrations (MIC)
M. bovis P-7101 = assay: microbe, parasite or virus in culture; assay type: cell-based; details: Mycobacterium tuberculosis variant bovis, P7101, 20 h; read-out: minimum inhibitory concentrations (MIC)
M. lacunata P-7102 = assay: microbe, parasite or virus in culture; assay type: cell-based; details: 20 h; read-out: minimum inhibitory concentrations (MIC)
Flavobacterium sp P-7201 = assay: microbe, parasite or virus in culture; assay type: cell-based; details: P7201, 20 h, read-out: minimum inhibitory concentrations (MIC)
B. abortus kusayanagi = assay: microbe, parasite or virus in culture; assay type: cell-based; details: Brucella abortus, 20 h; read-out: minimum inhibitory concentrations (MIC)
[1] = tested on: Gram-positive and Gram-negative bacteria; assay: In vitro antibacterial activity, overall; assay type: cell-based
Protocol: The numbers in the table show minimum inhibitory concentrations (MIC) (μg/ml), calculated for free base. The minimum inhibitory concentration was determined by the twofold agar-dilution method, which was recommended by Japan Society of Chemotherapy (Chemotherapy, 29(1), (1981)), using Muller-Hinton agar. One loopful of an overnight culture of test organisms in Mueller-Hinton broth was inoculated onto 10-ml drug-containing agar layers in petri dishes. Bacterial inocula contained approximately 10^6 colonyl-forming units. Bacterial growth was observed after 20-hour incubation at 37° C. The MIC was defined as the lowest drug concentration which prevented visible bacterial growth.

[2] = tested on: Staphylococcus aureus 50774; assay: animal or person; assay type: in vivo
[3] = tested on: Streptococcus pyogenes A65; assay: animal or person; assay type: in vivo; details: A65, in Mus musculus, po, 168 h, 7 days, read-out: median effective dose (ED50)
[4] = tested on: Pseudomonas aeruginosa 12; assay: animal or person; assay type: in vivo
[5] = tested on: Gram-positive and Gram-negative bacteria; assay: In vivo efficacy against systemic infections, overall
Protocol: Compounds were each dissolved in deionized water. Each of the solutions was orally administered to mice infected with each of the test organisms under the conditions shown hereinbelow, and the median effective dose (ED 50) was calculated by […]. The numerals in the table show ED50 (mg/kg) value, calculated for free base.
Mice: Male mice (ddY-S) weighing about 20 g Infection:
Twice, immediately and 6 hours after infection.
For 14 days in case of Staphylococcus aureus 50774.
For 7 days in case of other organisms.

in vivo [6] = assay: in vivo; design: species or system mice; details: mouse; for dose excreted at 24 h: 5 mg/kg
in vivo [7] = details: mouse, po
male mice (ddY) = assay: Acute oral toxicity in mice (Table 3); details: mouse, in vivo

What does the source list for `CC1CN(c2c(F)c(F)c3c(=O)c(C(=O)O)cn(C4CC4)c3c2F)CCN1` (centres unmarked) [Compound 1, 1-cyclopropyl-5,6,8-trifluoro-7-(3-methyl-1-piperazinyl)-1,4-dihydro-4-oxoquinoline-3-carboxylic acid]?
MIC (S. aureus 209P JC-1): 0.2 µg/mL (≈ 0.524 µM); MIC (S. aureus No. 50774): 0.2 µg/mL (≈ 0.524 µM); MIC (S. aureus No. 80): 0.2 µg/mL (≈ 0.524 µM); MIC (S. pyogenes A 65): 1.56 µg/mL (≈ 4.09 µM); MIC (S. pyogenes Cook): 1.56 µg/mL (≈ 4.09 µM); MIC (E. coli P-51213): 0.1 µg/mL (≈ 0.262 µM); MIC (P. aeruginosa 12): 0.78 µg/mL (≈ 2.05 µM); MIC (M. bovis P-7101): 1.56 µg/mL (≈ 4.09 µM); MIC (M. lacunata P-7102): 6.25 µg/mL (≈ 16.4 µM); MIC (Flavobacterium sp P-7201): 0.39 µg/mL (≈ 1.02 µM); MIC (B. abortus kusayanagi): 3.13 µg/mL (≈ 8.21 µM); antibacterial activity against Gram-positive and Gram-negative bacteria (in words) [1]: very high antibacterial activities; ED50 ([2]; Staphylococcus aureus, 50774, in Mus musculus, po, 336 h, 14 days, read-out: median effective dose (ED50)): 2.4 mg/kg; efficacy against systemic infection by S. aureus 50774 compared with Compound B (in words) ([2]; in vivo): better efficacy; ED50 [3]: 17.3 mg/kg; ED50 ([4]; Pseudomonas aeruginosa, 12, in Mus musculus, po, 168 h, 7 days, read-out: median effective dose (ED50)): 2.46 mg/kg; efficacy against systemic infection by P. aeruginosa 12 compared with Compound A (in words) ([4]; in vivo): better efficacy; therapeutic effect on infections by Gram-positive and Gram-negative bacteria (in words) ([5]; in vivo): potent therapeutic effects; therapeutic effect compared with Compounds A and B (in words) ([5]; versus Compounds A and B, systemic infections, mice): better therapeutic effects; dose excreted at 24 h (in vivo [6]; feces, iv, read-out: Feces recovery): 14%; dose excreted at 24 h (in vivo [6]; feces, po, read-out: Feces recovery): 22.3%; absorbability (in words) (in vivo [6]; in vivo): very good oral absorbability; metabolic stability (in words) (in vivo [6]; in vivo): good metabolic stability; total recovery (in words) (in vivo [6]; in vivo): High total recovery; urinary excretion (in words) (in vivo [6]; in vivo): very good; metabolic stability and oral absorbability compared with Compound B (in words) (in vivo [6]; in vivo, po): superior to Compound B in metabolic stability and oral absorbability; dose excreted at 24 h (in vivo [6]; urine and feces, iv, read-out: Total recovery): 77.6%; dose excreted at 24 h (in vivo [6]; urine and feces, po, read-out: Total recovery): 85.7%; dose excreted at 24 h (in vivo [6]; urine, iv, read-out: Urine recovery): 63.6%; dose excreted at 24 h (in vivo [6]; urine, po, read-out: Urine recovery): 63.4%; LD50 at 168 h (in vivo [7]): > 2000 mg/kg; toxicity (in words) (male mice (ddY)): low oral toxicity
